From patent publication US9802982B2, “Peptide and uses thereof” (Tunghai University, priority 2014, dated 2017)
Values after ≈ are worked out from the molar mass of the structure shown. Read-outs that look alike come from different tables or passages of the source. Where a SMILES comes first, the peptide text is derived from it. Where no end group is shown, it is not given here. [ ]: non-standard residue; d: D form. NMeW = CN[C@@H](Cc1c[nH]c2ccccc12)C(=O)O; NMeR = CN[C@@H](CCCNC(=N)N)C(=O)O

Tests used:
Type in all cases: cell-based
[1] = tested on: Escherichia coli (ATCC 25922)
Description: (§1) Three bacteria strains, Escherichia coli (ATCC 25922), Staphylococcus aureus (ATCC25923), and Pseudomon asaeruginosa (ATCC27853) were brought from the Food Industry Research and Development Institute, Hsinchu, Taiwan.
(§2) Each of the strain (0.1-0.2 mL) was inoculated on an agar gel medium (Merck, Whitehouse, Station, N.J., USA) and isolated into single colony by streak plate method. Each of the strain was spread evenly by a sterile L-shaped glass rod and incubated overnight. After that, the single colony on each agar gel medium was transferred to liquid LB medium (Merck, Whitehouse, Station, N.J., USA) and incubated at 37° C. in an incubator.
(§3) Each bacteria strain from example 6 was incubated to its mid-log phase at 37° C. in 2 mL Lysogeny broth (LB) in an incubator, wherein the mid-log phase of Escherichia coli is 4 hours, the mid-log phase of Staphylococcus aureus is 6 hours, and the mid-log phase of Pseudomonas aeruginosa is 8 hours. According to 0.5 McFarland Standard, the number of bacteria in a broth is 1×10^8 CFU/mL when the OD595 is 0.08-0.09. […] And then, the number of bacteria in each broth was diluted from 1×10^8 CFU/mL to […]. Finally, each broth has bacterial number of 5×10^5 CFU/mL in Mueller Hinton broth (MHB).
(§4) 199 μL of each of the foresaid diluted broth was respectively placed into a 96 well plate, and 1 μL of each peptide from example 5 was added into each well to incubate at 37° C. in an incubator for 16 hours. The OD595 of the coculture of each broth and each peptide was measured by a microplate spectrophotometer. In addition, the bacterial broth without the peptide served as positive control (PC), and the free broth MHB culture medium served as negative control (NC). The minimum inhibitory concentration (MIC90) of each peptide against each bacteria was measured according to the following equation, wherein A is the absorbance. MIC90≦[(Apeptide−ANC)(APC−ANC)]
(§5) In addition, to measure the minimum bactericidal concentration (MBC), 1 μL of each broth cocultured with the peptide was sprayed on a flat plate medium at 37° C. in an incubator for 24 hours. If the incubation result has no bacteria, the concentration of the reagent is MBC.

[2] = tested on: Staphylococcus aureus (ATCC25923)
Description: as §1, §2, §3, §4, §5

[3] = tested on: Pseudomonas aeruginosa (ATCC27853)
Description: as §1, §2, §3, §4, §5

[4] = tested on: Escherichia coli (ATCC 25922); remark: listed apart in the source
Description: as §1, §2, §3, §4

[5] = tested on: Staphylococcus aureus (ATCC25923); remark: listed apart in the source
Description: as §1, §2, §3, §4

[6] = tested on: Pseudomonas aeruginosa (ATCC27853); remark: listed apart in the source
Description: as §1, §2, §3, §4

human red blood cells = assay: Hemolysis assay
Description: 1-3 mL human blood was centrifuged at 3000 rpm, 4° C. for 10 minutes. The supernatant was discarded. The remaining was washed with cold phosphate buffer saline (PBS) and centrifuged at 3000 rpm, 4° C. for 1 minute. The supernatant was discarded. The remaining red blood cells were washed and diluted as 2% red blood cell solution with cold PBS.
A mixture of 100 μL red blood cell solution and 100 μL PBS was served as a negative control. A mixture of 100 μL red blood cells solution and 100 μL 0.2% Triton X-100 was served as a positive control. The solution of peptide 1, peptide 2, peptide 3, peptide 5, and peptide 6 were respectively mixed with red blood cell solution with the same volume and incubated at 37° C. for 1 hour. After incubation, the mixture was centrifuged at 3000 rpm, 4° C. for 10 minutes. Each of the supernatant was collected to measure the absorbance at wavelength of 405 nm by an ELISA plate reader. The hemolysis of each peptide was calculated according to the following equation, wherein Abs represents the absorbance. [(Abspeptide−AbsPBS)/(AbsTriton X-100−AbsPBS)]×100

[7] = coculture plated on flat plate medium, 37° C., 24 hours, no bacteria
[8] = 5×10^5 CFU/mL in MHB, 37° C., 16 hours, OD595

| Compound | Minimum bactericidal concentration (MBC99.9) Escherichia coli ([1]; ATCC 25922, 24 h) | Minimum bactericidal concentration (MBC99.9) Staphylococcus aureus ([2]; ATCC25923, 24 h) | Minimum bactericidal concentration (MBC99.9) Pseudomonas aeruginosa ([3]; ATCC27853, 24 h) | Minimum inhibitory concentration (MIC90) Escherichia coli ([4]; ATCC 25922, 16 h) | Minimum inhibitory concentration (MIC90) Staphylococcus aureus ([5]; ATCC25923, 16 h) | Minimum inhibitory concentration (MIC90) Pseudomonas aeruginosa ([6]; ATCC27853, 16 h) | Hemolysis (%) (human red blood cells; red cells of human, 1 h) | other results |
| --- | --- | --- | --- | --- | --- | --- | --- | --- |
| CC(C)C[C@H](NC(=O)[C@H](CCCNC(=N)N)NC(=O)[C@@H](N)CCCCN)C(=O)N[C@@H](CCCNC(=N)N)C(=O)N[C@@H](CCCNC(=N)N)C(=O)N[C@H](C(=O)N(C)[C@@H](Cc1c[nH]c2ccccc12)C(=O)N[C@@H](CCCNC(=N)N)C(=O)N[C@@H](Cc1c[nH]c2ccccc12)C(=O)N[C@@H](Cc1c[nH]c2ccccc12)C(=O)N[C@@H](CCCNC(=N)N)C(N)=O)C(C)C [peptide 4, KRLRRVMeWRWWR] (H-KRLRRV[NMeW]RWWR-NH2; N-terminus assumed) | 20 µM (≈ 34.2 µg/mL) | 10 µM (≈ 17.1 µg/mL) | 20 µM (≈ 34.2 µg/mL) | 20 µM (≈ 34.2 µg/mL) | 10 µM (≈ 17.1 µg/mL) | 20 µM (≈ 34.2 µg/mL) |  |  |
| KWLRRVWRWWR-NH2 [peptide 6, KWLRRVWRWWR] | 5 µM | 10 µM | 5 µM | 5 µM | 5 µM | 5 µM | 70.7% |  |
| KWLRWVRRRWW-NH2 [peptide 3, KWLRWVRRRWW] | 10 µM | 5 µM | 20 µM | 2.5 µM | 2.5 µM | 5 µM | 3.4% | Hemolysis, comparison in words (human red blood cells): the lowest |
| Triton X-100 [Positive control, reference compound] |  |  |  |  |  |  |  | Hemolysis (%) (human red blood cells): 100% |
| CC(C)C[C@H](NC(=O)[C@H](Cc1c[nH]c2ccccc12)NC(=O)[C@@H](N)CCCCN)C(=O)N[C@@H](CCCNC(=N)N)C(=O)N[C@@H](CCCNC(=N)N)C(=O)N[C@H](C(=O)N(C)[C@@H](Cc1c[nH]c2ccccc12)C(=O)N[C@@H](CCCNC(=N)N)C(=O)N[C@@H](Cc1c[nH]c2ccccc12)C(=O)N[C@@H](Cc1c[nH]c2ccccc12)C(=O)N[C@@H](CCCNC(=N)N)C(N)=O)C(C)C [peptide 1, KWLRRVMeWRWWR] (H-KWLRRV[NMeW]RWWR-NH2) | 20 µM (≈ 34.8 µg/mL) | 40 µM (≈ 69.6 µg/mL) | 10 µM (≈ 17.4 µg/mL) | 5 µM (≈ 8.71 µg/mL) | 5 µM (≈ 8.71 µg/mL) | 10 µM (≈ 17.4 µg/mL) | 20.1% | Hemolysis, comparison in words (human red blood cells): significantly lower than the peptide 5 |
| KWLRRPWRRWR-NH2 [peptide 2, KWLRRPWRRWR] |  |  |  |  |  |  |  | Hemolysis, comparison in words (human red blood cells; comparison among the peptides of Table 4): the lowest; Minimum bactericidal concentration (MBC99.9) Escherichia coli [1, 7]: 10 µM; Minimum bactericidal concentration (MBC99.9) Staphylococcus aureus [2, 7]: 5 µM; Minimum bactericidal concentration (MBC99.9) Pseudomonas aeruginosa [3, 7]: 20 µM; Minimum inhibitory concentration (MIC90) Escherichia coli [4, 8]: 2.5 µM; Minimum inhibitory concentration (MIC90) Staphylococcus aureus [5, 8]: 2.5 µM; Minimum inhibitory concentration (MIC90) Pseudomonas aeruginosa [6, 8]: 5 µM |
| CC(C)C[C@H](NC(=O)[C@H](Cc1c[nH]c2ccccc12)NC(=O)[C@@H](N)CCCCN)C(=O)N[C@@H](CCCNC(=N)N)C(=O)N(C)[C@@H](CCCNC(=N)N)C(=O)N[C@H](C(=O)N[C@@H](Cc1c[nH]c2ccccc12)C(=O)N[C@@H](CCCNC(=N)N)C(=O)N[C@@H](Cc1c[nH]c2ccccc12)C(=O)N[C@@H](Cc1c[nH]c2ccccc12)C(=O)N[C@@H](CCCNC(=N)N)C(N)=O)C(C)C [peptide 5, KWLRMeRVWRWWR] (H-KWLR[NMeR]VWRWWR-NH2) |  |  |  |  |  |  | 44.9% |  |
